Test results as given in ChEMBL document CHEMBL4507277.

Columns and labels:
[1] = biological target: Serine/threonine-protein kinase 26 (Homo sapiens) (UniProt Q9P289); conditions: Compound concentration 1000.0 nM
[2] = biological target: Death-associated protein kinase 3 (Homo sapiens) (UniProt O43293); conditions: Compound concentration 1000.0 nM
[3] = test system: Phosphatidylinositol 4,5-bisphosphate 3-kinase catalytic subunit alpha isoform (Homo sapiens), P42336 [E545K]; conditions: Compound concentration 1000.0 nM
[4] = biological target: Serine/threonine-protein kinase 32C (Homo sapiens) (UniProt Q86UX6); conditions: Compound concentration 1000.0 nM
[5] = biological target: Serine/threonine-protein kinase WNK4 (Homo sapiens) (UniProt Q96J92); conditions: Compound concentration 1000.0 nM
[6] = biological target: Mitotic checkpoint serine/threonine-protein kinase BUB1 (Homo sapiens) (UniProt O43683); conditions: Compound concentration 1000.0 nM
[7] = biological target: Serine/threonine-protein kinase PLK4 (Homo sapiens) (UniProt O00444); conditions: Compound concentration 1000.0 nM
[8] = biological target: MAP/microtubule affinity-regulating kinase 3 (Homo sapiens) (UniProt P27448); conditions: Compound concentration 1000.0 nM
[9] = biological target: Serine/threonine-protein kinase TAO3 (Homo sapiens) (UniProt Q9H2K8); conditions: Compound concentration 1000.0 nM
[10] = test system: Epidermal growth factor receptor (Homo sapiens), P00533 [G719C]; conditions: Compound concentration 1000.0 nM
[11] = biological target: Membrane-associated tyrosine- and threonine-specific cdc2-inhibitory kinase (Homo sapiens) (UniProt Q99640); conditions: Compound concentration 1000.0 nM
[12] = biological target: Non-receptor tyrosine-protein kinase TYK2 (Homo sapiens) (UniProt P29597); conditions: Compound concentration 1000.0 nM
Chain of Non-receptor tyrosine-protein kinase TYK2 (Homo sapiens) (P29597 whole entry): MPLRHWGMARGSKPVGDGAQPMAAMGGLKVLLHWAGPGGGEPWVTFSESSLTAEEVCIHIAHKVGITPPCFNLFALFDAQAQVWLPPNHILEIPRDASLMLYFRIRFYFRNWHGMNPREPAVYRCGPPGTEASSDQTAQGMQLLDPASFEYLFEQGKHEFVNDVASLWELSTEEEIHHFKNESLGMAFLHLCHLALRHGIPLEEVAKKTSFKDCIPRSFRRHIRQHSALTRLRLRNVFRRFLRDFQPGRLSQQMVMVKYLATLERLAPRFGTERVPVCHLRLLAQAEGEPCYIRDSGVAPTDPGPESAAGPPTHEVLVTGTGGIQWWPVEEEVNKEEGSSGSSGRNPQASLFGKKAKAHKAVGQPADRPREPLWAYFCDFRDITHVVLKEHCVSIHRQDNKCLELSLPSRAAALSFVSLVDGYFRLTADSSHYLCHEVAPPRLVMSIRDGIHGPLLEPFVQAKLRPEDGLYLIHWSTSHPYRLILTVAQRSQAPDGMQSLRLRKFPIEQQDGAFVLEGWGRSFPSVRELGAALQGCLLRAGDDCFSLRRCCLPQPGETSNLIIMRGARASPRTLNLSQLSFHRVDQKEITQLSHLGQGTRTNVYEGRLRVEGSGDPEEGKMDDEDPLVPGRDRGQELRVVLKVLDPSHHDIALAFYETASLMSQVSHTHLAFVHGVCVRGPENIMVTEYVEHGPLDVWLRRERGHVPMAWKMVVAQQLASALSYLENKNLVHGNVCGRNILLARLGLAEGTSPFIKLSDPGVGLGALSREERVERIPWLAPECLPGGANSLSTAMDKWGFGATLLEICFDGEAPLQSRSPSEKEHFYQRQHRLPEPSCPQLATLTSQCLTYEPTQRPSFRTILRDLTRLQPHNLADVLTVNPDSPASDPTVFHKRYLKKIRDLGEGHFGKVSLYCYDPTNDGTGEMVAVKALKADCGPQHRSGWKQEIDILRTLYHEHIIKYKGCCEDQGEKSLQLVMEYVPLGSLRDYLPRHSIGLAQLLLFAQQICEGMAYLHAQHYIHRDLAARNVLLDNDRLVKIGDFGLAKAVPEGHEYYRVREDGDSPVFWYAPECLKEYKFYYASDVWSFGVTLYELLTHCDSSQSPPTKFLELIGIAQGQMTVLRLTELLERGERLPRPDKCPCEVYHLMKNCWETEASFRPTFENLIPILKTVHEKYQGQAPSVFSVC

[13] = test system: Mast/stem cell growth factor receptor Kit (Homo sapiens), P10721 [V559D,V654A]; conditions: Compound concentration 1000.0 nM
[14] = biological target: Mitogen-activated protein kinase 9 (Homo sapiens) (UniProt P45984); conditions: Compound concentration 1000.0 nM
[15] = test system: Mast/stem cell growth factor receptor Kit (Homo sapiens), P10721 [A829P]; conditions: Compound concentration 1000.0 nM
[16] = test system: Epidermal growth factor receptor (Homo sapiens), P00533 [L858R,T790M]; conditions: Compound concentration 1000.0 nM
[17] = biological target: Serine/threonine-protein kinase WNK2 (Homo sapiens) (UniProt Q9Y3S1); conditions: Compound concentration 1000.0 nM
[18] = biological target: Mitogen-activated protein kinase kinase kinase 20 (Homo sapiens) (UniProt Q9NYL2); conditions: Compound concentration 1000.0 nM
[19] = biological target: Vascular endothelial growth factor receptor 1 (Homo sapiens) (UniProt P17948); conditions: Compound concentration 1000.0 nM
[20] = biological target: Mitogen-activated protein kinase kinase kinase kinase 3 (Homo sapiens) (UniProt Q8IVH8); conditions: Compound concentration 1000.0 nM
[21] = biological target: Beta-2 adrenergic receptor (Homo sapiens) (UniProt P07550); conditions: Compound concentration 10.0 uM
[22] = biological target: Inhibitor of nuclear factor kappa-B kinase subunit epsilon (Homo sapiens) (UniProt Q14164); conditions: Compound concentration 1000.0 nM
[23] = biological target: Dual specificity mitogen-activated protein kinase kinase 5 (Homo sapiens) (UniProt Q13163); conditions: Compound concentration 1000.0 nM
Chain of Dual specificity mitogen-activated protein kinase kinase 5 (Homo sapiens) (Q13163 whole entry): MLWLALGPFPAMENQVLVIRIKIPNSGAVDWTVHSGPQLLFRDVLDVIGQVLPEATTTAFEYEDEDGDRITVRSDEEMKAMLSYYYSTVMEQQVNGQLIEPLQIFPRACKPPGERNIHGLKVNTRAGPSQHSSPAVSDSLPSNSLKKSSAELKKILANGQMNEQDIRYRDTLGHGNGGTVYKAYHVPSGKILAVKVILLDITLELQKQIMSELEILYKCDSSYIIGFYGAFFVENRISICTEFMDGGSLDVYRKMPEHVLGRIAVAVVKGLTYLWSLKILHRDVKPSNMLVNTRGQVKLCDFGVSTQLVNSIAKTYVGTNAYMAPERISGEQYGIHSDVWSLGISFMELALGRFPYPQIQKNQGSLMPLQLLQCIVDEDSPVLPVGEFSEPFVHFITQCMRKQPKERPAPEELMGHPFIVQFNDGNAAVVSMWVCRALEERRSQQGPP

[24] = biological target: Phosphatidylinositol 5-phosphate 4-kinase type-2 beta (Homo sapiens) (UniProt P78356); conditions: Compound concentration 1000.0 nM
Chain of Phosphatidylinositol 5-phosphate 4-kinase type-2 beta (Homo sapiens) (P78356 whole entry): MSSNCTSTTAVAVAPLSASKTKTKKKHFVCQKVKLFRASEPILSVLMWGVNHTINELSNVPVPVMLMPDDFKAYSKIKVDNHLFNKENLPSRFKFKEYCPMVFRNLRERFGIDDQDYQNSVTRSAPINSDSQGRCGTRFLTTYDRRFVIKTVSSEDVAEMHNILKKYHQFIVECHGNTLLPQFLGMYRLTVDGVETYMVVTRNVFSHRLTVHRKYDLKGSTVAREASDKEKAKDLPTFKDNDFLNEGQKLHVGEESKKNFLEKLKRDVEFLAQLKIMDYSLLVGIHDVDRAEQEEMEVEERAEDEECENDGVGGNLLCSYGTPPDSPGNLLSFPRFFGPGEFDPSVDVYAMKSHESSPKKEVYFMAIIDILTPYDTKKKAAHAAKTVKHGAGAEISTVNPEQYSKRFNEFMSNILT

[25] = biological target: Delta-type opioid receptor (Homo sapiens) (UniProt P41143); conditions: Compound concentration 10.0 uM
[26] = biological target: Cyclin-dependent kinase 4 (Homo sapiens) (UniProt P11802); conditions: Compound concentration 1000.0 nM
[27] = biological target: Serine/threonine-protein kinase NLK (Homo sapiens) (UniProt Q9UBE8); conditions: Compound concentration 1000.0 nM
Chain of Serine/threonine-protein kinase NLK (Homo sapiens) (Q9UBE8 whole entry): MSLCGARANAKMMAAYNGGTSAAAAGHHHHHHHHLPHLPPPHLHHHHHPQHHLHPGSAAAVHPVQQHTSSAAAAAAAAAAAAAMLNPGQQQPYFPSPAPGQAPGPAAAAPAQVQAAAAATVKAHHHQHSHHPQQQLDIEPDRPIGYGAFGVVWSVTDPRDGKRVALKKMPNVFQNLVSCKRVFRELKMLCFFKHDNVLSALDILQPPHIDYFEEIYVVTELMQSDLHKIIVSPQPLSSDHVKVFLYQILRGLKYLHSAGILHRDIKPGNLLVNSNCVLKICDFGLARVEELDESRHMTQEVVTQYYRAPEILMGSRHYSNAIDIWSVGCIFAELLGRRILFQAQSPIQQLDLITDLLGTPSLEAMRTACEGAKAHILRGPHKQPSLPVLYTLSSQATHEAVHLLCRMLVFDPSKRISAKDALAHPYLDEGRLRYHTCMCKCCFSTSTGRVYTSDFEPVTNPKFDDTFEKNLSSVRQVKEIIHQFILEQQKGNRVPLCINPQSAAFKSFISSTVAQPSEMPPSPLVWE

[28] = biological target: Tyrosine-protein kinase Fes/Fps (Homo sapiens) (UniProt P07332); conditions: Compound concentration 1000.0 nM
[29] = biological target: Serine/threonine-protein kinase pim-3 (Homo sapiens) (UniProt Q86V86); conditions: Compound concentration 1000.0 nM
[30] = biological target: Mitogen-activated protein kinase kinase kinase kinase 2 (Homo sapiens) (UniProt Q12851); conditions: Compound concentration 1000.0 nM
[31] = biological target: Serine/threonine-protein kinase WNK1 (Homo sapiens) (UniProt Q9H4A3); conditions: Compound concentration 1000.0 nM
Chain of Serine/threonine-protein kinase WNK1 (Homo sapiens) (Q9H4A3 whole entry, looked up): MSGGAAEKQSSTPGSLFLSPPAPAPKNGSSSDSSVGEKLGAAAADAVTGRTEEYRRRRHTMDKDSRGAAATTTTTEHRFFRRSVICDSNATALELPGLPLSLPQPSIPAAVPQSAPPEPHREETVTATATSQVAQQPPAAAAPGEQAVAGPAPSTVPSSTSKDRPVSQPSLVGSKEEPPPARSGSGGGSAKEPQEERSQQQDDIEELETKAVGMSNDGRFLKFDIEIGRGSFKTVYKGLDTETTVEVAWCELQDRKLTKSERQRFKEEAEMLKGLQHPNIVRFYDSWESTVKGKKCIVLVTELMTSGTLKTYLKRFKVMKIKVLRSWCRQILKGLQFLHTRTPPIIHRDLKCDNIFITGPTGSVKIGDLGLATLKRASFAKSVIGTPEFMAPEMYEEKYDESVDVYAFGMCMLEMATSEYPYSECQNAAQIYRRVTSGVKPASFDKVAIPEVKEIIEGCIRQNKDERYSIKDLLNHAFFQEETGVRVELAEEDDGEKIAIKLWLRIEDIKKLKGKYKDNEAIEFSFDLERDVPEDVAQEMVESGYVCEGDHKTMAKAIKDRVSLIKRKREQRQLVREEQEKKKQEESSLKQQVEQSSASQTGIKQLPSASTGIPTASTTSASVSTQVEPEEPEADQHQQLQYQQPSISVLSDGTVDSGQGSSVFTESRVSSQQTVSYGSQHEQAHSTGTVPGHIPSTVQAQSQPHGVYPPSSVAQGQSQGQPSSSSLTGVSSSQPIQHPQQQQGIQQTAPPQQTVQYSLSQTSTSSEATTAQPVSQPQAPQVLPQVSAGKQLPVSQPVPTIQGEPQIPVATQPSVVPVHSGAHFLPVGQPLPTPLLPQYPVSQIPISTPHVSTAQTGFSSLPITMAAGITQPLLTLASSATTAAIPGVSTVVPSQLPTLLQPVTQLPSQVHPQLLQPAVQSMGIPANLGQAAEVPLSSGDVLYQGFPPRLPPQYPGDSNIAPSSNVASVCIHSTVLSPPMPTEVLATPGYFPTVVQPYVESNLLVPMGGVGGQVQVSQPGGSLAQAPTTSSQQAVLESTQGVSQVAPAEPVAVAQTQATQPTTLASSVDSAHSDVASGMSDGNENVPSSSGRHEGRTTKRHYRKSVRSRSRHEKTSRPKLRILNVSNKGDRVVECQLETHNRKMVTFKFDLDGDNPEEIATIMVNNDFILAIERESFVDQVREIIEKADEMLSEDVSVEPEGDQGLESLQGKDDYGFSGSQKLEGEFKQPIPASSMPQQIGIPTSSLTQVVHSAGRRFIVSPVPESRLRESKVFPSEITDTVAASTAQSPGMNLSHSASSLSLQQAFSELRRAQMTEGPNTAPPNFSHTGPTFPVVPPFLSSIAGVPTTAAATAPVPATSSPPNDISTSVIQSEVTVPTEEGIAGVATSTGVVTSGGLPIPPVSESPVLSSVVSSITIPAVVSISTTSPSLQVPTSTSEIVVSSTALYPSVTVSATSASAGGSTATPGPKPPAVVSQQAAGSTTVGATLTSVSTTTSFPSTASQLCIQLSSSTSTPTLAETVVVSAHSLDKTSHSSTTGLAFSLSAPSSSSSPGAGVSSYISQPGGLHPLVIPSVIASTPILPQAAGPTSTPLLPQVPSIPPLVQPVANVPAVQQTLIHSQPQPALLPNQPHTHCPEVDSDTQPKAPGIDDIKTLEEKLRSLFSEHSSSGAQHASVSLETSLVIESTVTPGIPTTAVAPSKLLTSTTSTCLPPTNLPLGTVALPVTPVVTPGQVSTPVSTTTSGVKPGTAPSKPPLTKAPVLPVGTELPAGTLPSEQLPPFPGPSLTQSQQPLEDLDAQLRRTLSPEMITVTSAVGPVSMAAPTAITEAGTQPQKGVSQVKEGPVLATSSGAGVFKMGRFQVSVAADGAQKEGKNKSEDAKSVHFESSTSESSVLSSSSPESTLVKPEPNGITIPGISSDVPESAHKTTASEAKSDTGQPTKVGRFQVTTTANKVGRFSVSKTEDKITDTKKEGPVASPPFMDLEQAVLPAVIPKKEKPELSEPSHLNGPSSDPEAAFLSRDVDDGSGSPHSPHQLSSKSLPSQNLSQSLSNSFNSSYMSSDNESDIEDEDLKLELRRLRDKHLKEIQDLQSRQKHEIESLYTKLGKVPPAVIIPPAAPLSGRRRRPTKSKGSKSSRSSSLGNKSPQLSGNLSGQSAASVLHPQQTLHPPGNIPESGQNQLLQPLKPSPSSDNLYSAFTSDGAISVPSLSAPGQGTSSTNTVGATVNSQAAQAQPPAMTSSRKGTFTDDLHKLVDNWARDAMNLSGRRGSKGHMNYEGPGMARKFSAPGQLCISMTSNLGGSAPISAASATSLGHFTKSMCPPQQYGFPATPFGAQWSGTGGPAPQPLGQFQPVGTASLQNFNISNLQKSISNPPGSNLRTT

[32] = biological target: Serine/threonine-protein kinase PAK 6 (Homo sapiens) (UniProt Q9NQU5); conditions: Compound concentration 1000.0 nM
[33] = test system: Tyrosine-protein kinase ABL1 (Homo sapiens), P00519 [Q252H]; conditions: Compound concentration 1000.0 nM
[34] = biological target: Insulin receptor (Homo sapiens) (UniProt P06213); conditions: Compound concentration 1000.0 nM
[35] = biological target: Interferon-induced, double-stranded RNA-activated protein kinase (Homo sapiens) (UniProt P19525); conditions: Compound concentration 1000.0 nM
[36] = biological target: Serine/threonine-protein kinase LATS2 (Homo sapiens) (UniProt Q9NRM7); conditions: Compound concentration 1000.0 nM
[37] = biological target: Dual specificity mitogen-activated protein kinase kinase 3 (Homo sapiens) (UniProt P46734); conditions: Compound concentration 1000.0 nM
[38] = biological target: Interleukin-1 receptor-associated kinase 1 (Homo sapiens) (UniProt P51617); conditions: Compound concentration 1000.0 nM
[39] = biological target: Serine/threonine-protein kinase 10 (Homo sapiens) (UniProt O94804); conditions: Compound concentration 1000.0 nM
[40] = biological target: Hormonally up-regulated neu tumor-associated kinase (Homo sapiens) (UniProt P57058); conditions: Compound concentration 1000.0 nM
[41] = biological target: Serine/threonine-protein kinase Nek4 (Homo sapiens) (UniProt P51957); conditions: Compound concentration 1000.0 nM
[42] = biological target: Phosphatidylinositol 4-phosphate 3-kinase C2 domain-containing subunit beta (Homo sapiens) (UniProt O00750); conditions: Compound concentration 1000.0 nM
[43] = biological target: Serine/threonine-protein kinase BRSK2 (Homo sapiens) (UniProt Q8IWQ3); conditions: Compound concentration 1000.0 nM
[44] = biological target: cAMP-dependent protein kinase catalytic subunit alpha (Homo sapiens) (UniProt P17612); conditions: Compound concentration 1000.0 nM

CCS(=O)(=O)c1cc2cc(C[C@@](O)(CC(C)(C)c3ccc(F)cc3C(N)=O)C(F)(F)F)[nH]c2cn1
residual activity [1]: 91%
residual activity [2]: 100%
residual activity [3]: 79%
residual activity [4]: 90%
residual activity [5]: 84%
residual activity [6]: 66%
residual activity [7]: 87%
residual activity [8]: 100%
residual activity [9]: 78%
residual activity [10]: 100%
residual activity [11]: 67%
residual activity [12]: 83%
residual activity [13]: 81%
residual activity [14]: 84%
residual activity [15]: 73%
residual activity [16]: 83%
residual activity [17]: 46%
residual activity [18]: 100%
residual activity [19]: 67%
residual activity [20]: 82%
inhibition [21]: 15.2%
residual activity [22]: 83%
residual activity [23]: 81%
residual activity [24]: 85%
inhibition [25]: -3.88%
residual activity [26]: 97%
residual activity [27]: 100%
residual activity [28]: 100%
residual activity [29]: 100%
residual activity [30]: 80%
residual activity [31]: 90%
residual activity [32]: 77%
residual activity [33]: 92%
residual activity [34]: 86%
residual activity [35]: 61%
residual activity [36]: 100%
residual activity [37]: 67%
residual activity [38]: 80%
residual activity [39]: 100%
residual activity [40]: 100%
residual activity [41]: 91%
residual activity [42]: 86%
residual activity [43]: 72%
residual activity [44]: 100%

CCS(=O)(=O)c1cc2cc(C[C@](O)(CC(C)(C)c3ccc(F)cc3C(N)=O)C(F)(F)F)[nH]c2cn1
residual activity [1]: 94%
residual activity [2]: 97%
residual activity [3]: 80%
residual activity [4]: 100%
residual activity [5]: 100%
residual activity [6]: 86%
residual activity [7]: 80%
residual activity [8]: 100%
residual activity [9]: 86%
residual activity [10]: 100%
residual activity [11]: 100%
residual activity [12]: 93%
residual activity [13]: 79%
residual activity [14]: 100%
residual activity [15]: 89%
residual activity [16]: 83%
residual activity [17]: 100%
residual activity [18]: 87%
residual activity [19]: 81%
residual activity [20]: 83%
inhibition [21]: 4.71%
residual activity [22]: 100%
residual activity [23]: 100%
residual activity [24]: 96%
inhibition [25]: -2.58%
residual activity [26]: 96%
residual activity [27]: 100%
residual activity [28]: 100%
residual activity [29]: 100%
residual activity [30]: 96%
residual activity [31]: 97%
residual activity [32]: 100%
residual activity [33]: 100%
residual activity [34]: 94%
residual activity [35]: 52%
residual activity [36]: 40%
residual activity [37]: 100%
residual activity [38]: 99%
residual activity [39]: 100%
residual activity [40]: 100%
residual activity [41]: 85%
residual activity [42]: 89%
residual activity [43]: 100%
residual activity [44]: 100%
